Experimental data as given in US9156811B2 (priority 2008, dated 2015).

Assays:
[1] = target: T. brucei N-myristoyl transferase (Trypanosoma brucei brucei (strain 927/4 GUTat10.1), UniProt Q388H8); assay: biochemical; type: biochemical; conditions: value printed without enzyme tag in the NMT Enzyme column (taken as T. brucei NMT); read-out: IC50 (μM) NMT Enzyme
[2] = system: Trypanosome (T. brucei brucei); assay: In-vitro antitrypanosomal efficacy assay (cell growth, resazurin); type: cell-based; conditions: T. brucei cell growth
Method: To column 12, 200 μl media was added to provide a no cells control. Plates were then incubated at 37° C. in an atmosphere of 5% CO2 for 69 hours, before the addition of 20 μl of 500 μM rezasurin solution, and a further incubation period of 4 hours. […] Concentration effect curves were fitted using non-linear regression using XLFit 4.2 and EC50 values determined.

Sequence of T. brucei N-myristoyl transferase (Q388H8 1-446): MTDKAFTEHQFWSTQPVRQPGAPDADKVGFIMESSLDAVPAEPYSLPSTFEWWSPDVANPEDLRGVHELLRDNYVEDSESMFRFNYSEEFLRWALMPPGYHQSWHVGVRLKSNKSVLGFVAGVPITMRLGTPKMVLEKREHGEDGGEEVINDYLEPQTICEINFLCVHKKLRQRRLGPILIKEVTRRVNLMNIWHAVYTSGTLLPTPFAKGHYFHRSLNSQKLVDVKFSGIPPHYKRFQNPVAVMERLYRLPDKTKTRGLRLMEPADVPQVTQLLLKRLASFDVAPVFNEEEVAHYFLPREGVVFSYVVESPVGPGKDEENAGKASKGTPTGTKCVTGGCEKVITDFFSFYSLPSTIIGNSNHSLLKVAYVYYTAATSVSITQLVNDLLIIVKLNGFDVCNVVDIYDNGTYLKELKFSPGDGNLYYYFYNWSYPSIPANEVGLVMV

| SMILES | IC50 [1] [µM] | ED50 (μM) T. brucei [2] [µM] |
| --- | --- | --- |
| COc1cc([S+](=O)([O-])Nc2c(C)nn(C)c2C)ccc1NC(C)=O [DDD71623] | 42 | >1 |
| COc1cc(C)c([S+](=O)([O-])Nc2cc[nH]n2)c(C)c1C [DDD71630] | > 100 | >1 |
| Cc1nn(C)c(C)c1N[S+](=O)([O-])c1ccc2c(c1)C(C)C(=O)N2 (stereo not shown) [DDD71637] | 11.7 | >1 |
| COc1cc(C)c([S+](=O)([O-])n2ccc(N)n2)c(C)c1C [DDD71644] | > 100 | >1 |
| COc1cc(C)c([S+](=O)([O-])Nc2c(C)cc(C)cc2C)c(C)c1C [DDD71645] | > 100 | >1 |
| CC(=O)Nc1cc(C)c([S+](=O)([O-])Nc2c(C)nn(C)c2C)s1 [DDD73219] | 69 | >1 |
| Cc1nn(C)c(C)c1N[S+](=O)([O-])c1sc2ccc(F)cc2c1C [DDD73221] | 6.6 | >1 |
| Cc1nn(C)c(C)c1N[S+](=O)([O-])c1ccc(NCCCO)nc1 [DDD73222] | 1 | >1 |
| Cc1nn(C)c(C)c1N[S+](=O)([O-])c1ccc(CN2CCNC(=O)C2)cc1 [DDD73225] | > 100 | >1 |
| Cc1nn(C)c(C)c1N[S+](=O)([O-])c1ccc(CN2CCCCC2)cc1 [DDD73226] | > 100 | >1 |
| Cc1nn(C)c(C)c1N[S+](=O)([O-])c1ccc(N2CCc3ccccc3C2)nc1 [DDD73227] | 0.9 | 8.1 |
| Cc1nn(C)c(C)c1N[S+](=O)([O-])c1ccc(N2CCN(c3ccc(F)cc3)CC2)nc1 [DDD73230] | 10.7 | >1 |
| COc1ccc(SCc2ccc([S+](=O)([O-])Nc3c(C)nn(C)c3C)cc2)cc1 [DDD73231] | 0.76 | 6.7 |
| Cc1nn(C)c(C)c1N[S+](=O)([O-])c1ccc(Cn2ccnc2)cc1 [DDD73232] | 1.9 | 18.6 |
| Cc1nn(C)c(C)c1N[S+](=O)([O-])c1ccc(NCc2cccnc2)nc1 [DDD73233] | 2.7 | >1 |
| Cc1nn(C)c(C)c1N[S+](=O)([O-])c1ccc(N2CCN(C)CC2)nc1 [DDD73236] | 11.9 | >1 |

| SMILES | IC50 [1] [µM] | ED50 (μM) T. brucei [2] [µM] |
| --- | --- | --- |
| Cc1nn(C)c(C)c1N[S+](=O)([O-])c1cc([S+](=O)([O-])c2ccccc2)cs1 [DDD73237] | 10.4 | >1 |
| Cc1nn(C)c(C)c1N[S+](=O)([O-])c1ccc(CNC(=O)c2ccccc2)s1 [DDD73238] | 0.63 | 6.9 |
| Cc1nn(C)c(C)c1N[S+](=O)([O-])c1ccc(NCCN2CCOCC2)nc1 [DDD73239] | 38.7 | >50 |
| Cc1nn(C)c(C)c1N[S+](=O)([O-])c1cccc2c(N(C)C)cccc12 [DDD73240] | 1.6 | >1 |
| Cc1nn(C)c(C)c1N[S+](=O)([O-])c1ccc([S+](C)(=O)[O-])cc1 [DDD73241] | 4.2 | >1 |
| Cc1nn(C)c(C)c1N[S+](=O)([O-])c1ccc(-c2cc(C(F)(F)F)n(C)n2)s1 [DDD73242] | 32 | >1 |
| Cc1nn(C)c(C)c1N[S+](=O)([O-])c1ccc(CN2C(=O)CSC2=O)cc1 [DDD73243] | 5.8 | >1 |
| Cc1nn(C)c(C)c1N[S+](=O)([O-])c1ccc(CNCc2ccccc2)cc1 [DDD73265] | 22.5 | >1 |
| CCCn1ncc(N[S+](=O)([O-])c2c(C)cc(OC)c(C)c2C)n1 [DDD73266] | > 100 | >1 |
| CCc1ccc(-c2cc(Cl)c([S+](=O)([O-])Nc3c(C)nn(C)c3C)c(Cl)c2)cc1 [DDD73267] | 44.5 | >1 |
| Cc1nn(C)c(C)c1N[S+](=O)([O-])c1c(Cl)cc(-c2ccco2)cc1Cl [DDD73268] | 3.6 | >1 |
| CCCn1cc(N[S+](=O)([O-])c2c(C)cc(OC)c(C)c2C)nn1 [DDD73269] | > 100 | >1 |
| COc1cc(C)c([S+](=O)([O-])Nc2c(C)nn(C)c2N2CCOCC2)c(C)c1C [DDD73271] | > 100 | >1 |
| Cc1nn(C)c(C)c1N[S+](=O)([O-])c1c(Cl)cc(-c2cccc(OCC(C)C)c2)cc1Cl [DDD73272] | 35 | >1 |
| Cc1nn(C)c(C)c1N[S+](=O)([O-])c1c(Cl)cc(-c2cccc(C(F)(F)F)c2)cc1Cl [DDD73277] | 40 | >1 |
| Cc1nn(C)c(C)c1N[S+](=O)([O-])c1c(Cl)cc(-c2cccc3cnccc23)cc1Cl [DDD73278] | 26.9 | >1 |
